Patent publication US4849345A, “L-phenylalanine dehydrogenase and use thereof” (priority 1985, dated 1989)

How the values were obtained:
Assay type in all cases: biochemical
[1] = molecular target: T1, L-phenylalanine dehydrogenase produced by Bacillus sp. SCRC-R79a (Lysinibacillus sphaericus, UniProt P23307); experiment: Substrate and coenzyme specificity, oxidative deamination (Bacillus enzyme); set-up: inoculated with Bacillus sp; endogenous in cells; host or cells: Bacillus sp; enzyme purified in house; conditions: oxidative deamination
T1 sequence (P23307 1-381): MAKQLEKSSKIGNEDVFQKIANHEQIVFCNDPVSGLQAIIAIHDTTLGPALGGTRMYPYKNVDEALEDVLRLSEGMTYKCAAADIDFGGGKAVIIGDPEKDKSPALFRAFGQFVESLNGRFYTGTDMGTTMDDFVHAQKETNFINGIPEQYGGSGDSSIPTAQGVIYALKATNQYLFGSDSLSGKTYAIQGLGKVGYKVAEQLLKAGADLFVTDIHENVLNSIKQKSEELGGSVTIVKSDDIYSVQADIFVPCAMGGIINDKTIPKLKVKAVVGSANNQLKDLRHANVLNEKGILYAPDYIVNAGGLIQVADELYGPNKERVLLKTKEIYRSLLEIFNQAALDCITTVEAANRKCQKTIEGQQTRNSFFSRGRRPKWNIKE
Method: The substrate concentration is 10 mM except for the L-tyrosine concentration which is 1.4 mM.

[2] = molecular target: T2, L-phenylalanine dehydrogenase produced by Sporosarcina ureae SCRC-R04 (Sporosarcina ureae, UniProt P97014); experiment: Substrate and coenzyme specificity, oxidative deamination (Sporosarcina enzyme); conditions: oxidative deamination
T2 sequence (P97014 1-379): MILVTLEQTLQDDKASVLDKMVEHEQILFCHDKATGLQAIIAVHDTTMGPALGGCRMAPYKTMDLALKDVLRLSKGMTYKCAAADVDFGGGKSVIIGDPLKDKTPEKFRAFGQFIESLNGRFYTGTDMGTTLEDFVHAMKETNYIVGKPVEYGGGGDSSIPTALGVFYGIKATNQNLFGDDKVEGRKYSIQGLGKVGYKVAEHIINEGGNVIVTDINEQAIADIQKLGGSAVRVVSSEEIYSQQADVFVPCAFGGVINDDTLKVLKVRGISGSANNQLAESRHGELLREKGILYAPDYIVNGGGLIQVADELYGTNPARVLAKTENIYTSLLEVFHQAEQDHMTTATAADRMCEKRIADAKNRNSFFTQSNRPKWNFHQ
Method: The substrate concentration is 10 mM, except for the L-tyrosine concentration which is 1.4 mM.

[3] = molecular target: T2, L-phenylalanine dehydrogenase produced by Sporosarcina ureae SCRC-R04; experiment: biochemical; conditions: for Relative activity / activity at 1000 µM: not added = 100; for activity at 1000 µM: read-out: Relative activity
[4] = molecular target: T1, L-phenylalanine dehydrogenase produced by Bacillus sp. SCRC-R79a; experiment: Effect of metal ions and inhibitors on enzyme activity (Bacillus enzyme); set-up: inoculated with Bacillus sp; endogenous in cells; host or cells: Bacillus sp; enzyme purified in house; conditions: for Relative activity / activity at 1000 µM: not added = 100; for activity at 1000 µM: read-out: Relative activity
Method: Unless otherwise described, the concentration of metal cations and inhibitors is 1 mM.

Structure (SMILES)	action of the enzyme on the amino acid as substrate (in words) [1]	action of the enzyme on the amino acid as substrate (in words) [2]	Relative activity ([3]; 1 mM)	Relative activity ([4]; 1 mM)	also measured
C[C@H](N)C(=O)O [L-alanine]	cannot serve as a substrate	cannot serve as a substrate			
N=C(N)NCCC[C@H](N)C(=O)O [L-arginine]	cannot serve as a substrate	cannot serve as a substrate			
NC(=O)C[C@H](N)C(=O)O [L-asparagine]	cannot serve as a substrate	cannot serve as a substrate			
N[C@@H](CC(=O)O)C(=O)O [L-aspartic acid]	cannot serve as a substrate	cannot serve as a substrate			
N[C@@H](CS)C(=O)O [L-cysteine]	cannot serve as a substrate	cannot serve as a substrate			
N[C@@H](CCC(=O)O)C(=O)O [L-glutamic acid]	cannot serve as a substrate	cannot serve as a substrate			
NC(=O)CC[C@H](N)C(=O)O [L-glutamine]	cannot serve as a substrate	cannot serve as a substrate			
N[C@@H](Cc1c[nH]cn1)C(=O)O [L-histidine]	cannot serve as a substrate	cannot serve as a substrate			
NCCCC[C@H](N)C(=O)O [L-lysine]	cannot serve as a substrate	cannot serve as a substrate			
O=C(O)[C@@H]1CCCN1 [L-proline]	cannot serve as a substrate	cannot serve as a substrate			
N[C@@H](CO)C(=O)O [L-serine]	cannot serve as a substrate	cannot serve as a substrate			
C[C@@H](O)[C@H](N)C(=O)O [L-threonine]	cannot serve as a substrate	cannot serve as a substrate			
CC[C@H](N)C(=O)O [L-α-amino-n-butyric acid]	cannot serve as a substrate				
[Li+] [Li^+]			96%	95%	
[Mg+2] [Mg^2+]			90%	99%	
[Mn+2] [Mn^2+]			129%	95%	
CCN1C(=O)C=CC1=O [N--Ethylmaleimide, N-ethylmaleimide]					effect on enzyme activity (in words) [3]: inhibited; activity at 1000 µM ([3]; 1 mM): 21%; activity at 1000 µM ([4]; 1 mM): 162%
[N-]=[N+]=[N-].[Na+] [NaN3]			100%	102%	
[Na+] [Na^+]			92%	93%	
[Ni+2] [Ni^2+]			100%	100%	
O=C(O)c1cc[c]([Hg][Cl])cc1 [PCMB]					effect on enzyme activity (in words) [3]: inhibited; Relative activity ([3]; 0.2 mM): 0%; effect on enzyme activity (in words) [4]: inhibited; Relative activity ([4]; 0.2 mM): 0%
[Pb+2] [Pb^2+]			81%	53%	
[Sn+2] [Sn^2+]					Relative activity ([3]; 0.5 mM): 123%; Relative activity ([4]; 0.5 mM): 110%
[Zn+2] [Zn^2+]			99%	96%	
c1cnc2c(c1)ccc1cccnc12 [o-Phenanthroline]					activity at 1000 µM ([3]; 1 mM): 103%; activity at 1000 µM ([4]; 1 mM): 99%
c1ccc(-c2ccccn2)nc1 [α,α'-Dipyridyl]					activity at 1000 µM ([3]; 1 mM): 124%; activity at 1000 µM ([4]; 1 mM): 104%
